The CheMixHub ionic liquid set

Assay: xn = mol fraction of the nth substance listed

CCCCCCCCCCCC[N+](C)(C)C.[Br-] + O
Conditions	electrical conductivity [S/m]	viscosity [mPa·s]
293.15 K, 100 kPa, x1 = 5.406e-05	–	0.982
293.15 K, 100 kPa, x1 = 0.0001081	–	0.984
293.15 K, 100 kPa, x1 = 0.0001622	–	0.985
293.15 K, 100 kPa, x1 = 0.0002162	–	0.987
293.15 K, 100 kPa, x1 = 0.0002702	–	0.989
293.15 K, 100 kPa, x1 = 0.0003242	–	0.991
293.15 K, 100 kPa, x1 = 0.0003783	–	0.993
293.15 K, 100 kPa, x1 = 0.0004323	–	0.995
293.15 K, 100 kPa, x1 = 0.0004863	–	0.999
293.15 K, 100 kPa, x1 = 0.0005403	–	1
293.15 K, 101 kPa, x1 = 5.406e-05	–	0.985
293.15 K, 101 kPa, x1 = 0.0001081	–	0.986
293.15 K, 101 kPa, x1 = 0.0001622	–	0.988
293.15 K, 101 kPa, x1 = 0.0002162	–	0.99
293.15 K, 101 kPa, x1 = 0.0002702	–	0.992
293.15 K, 101 kPa, x1 = 0.0003242	–	0.994
293.15 K, 101 kPa, x1 = 0.0003783	–	0.996
293.15 K, 101 kPa, x1 = 0.0004323	–	0.998
293.15 K, 101 kPa, x1 = 0.0004863	–	1.001
293.15 K, 101 kPa, x1 = 0.0005403	–	1.004
298 K, 101 kPa, x1 = 0.0001567	0.079	–
298 K, 101 kPa, x1 = 0.0001676	0.084	–
298 K, 101 kPa, x1 = 0.000182	0.09	–
298 K, 101 kPa, x1 = 0.0001874	0.093	–
298 K, 101 kPa, x1 = 0.0001946	0.096	–
298 K, 101 kPa, x1 = 0.0002054	0.099	–
298 K, 101 kPa, x1 = 0.0002144	0.105	–
298 K, 101 kPa, x1 = 0.0002252	0.111	–
298 K, 101 kPa, x1 = 0.000236	0.115	–
298.15 K, 100 kPa, x1 = 5.406e-05	–	0.853
298.15 K, 100 kPa, x1 = 0.0001081	–	0.855
298.15 K, 100 kPa, x1 = 0.0001622	–	0.855
298.15 K, 100 kPa, x1 = 0.0002162	–	0.857
298.15 K, 100 kPa, x1 = 0.0002702	–	0.86
298.15 K, 100 kPa, x1 = 0.0003242	–	0.86
298.15 K, 100 kPa, x1 = 0.0003783	–	0.861
298.15 K, 100 kPa, x1 = 0.0004323	–	0.863
298.15 K, 100 kPa, x1 = 0.0004863	–	0.864
298.15 K, 100 kPa, x1 = 0.0005403	–	0.866
298.15 K, 101 kPa, x1 = 4.307e-05	0.02398	–
298.15 K, 101 kPa, x1 = 5.406e-05	–	0.853
298.15 K, 101 kPa, x1 = 5.568e-05	0.0306	–
298.15 K, 101 kPa, x1 = 6.865e-05	0.03743	–
298.15 K, 101 kPa, x1 = 8.144e-05	0.04413	–
298.15 K, 101 kPa, x1 = 9.46e-05	0.0508	–
298.15 K, 101 kPa, x1 = 0.0001068	0.05714	–
298.15 K, 101 kPa, x1 = 0.0001081	–	0.854
298.15 K, 101 kPa, x1 = 0.0001198	0.06364	–
298.15 K, 101 kPa, x1 = 0.0001322	0.06995	–
298.15 K, 101 kPa, x1 = 0.0001456	0.07656	–
298.15 K, 101 kPa, x1 = 0.0001584	0.0829	–
298.15 K, 101 kPa, x1 = 0.0001622	–	0.856
298.15 K, 101 kPa, x1 = 0.0001704	0.08876	–
298.15 K, 101 kPa, x1 = 0.0001857	0.09628	–
298.15 K, 101 kPa, x1 = 0.0002009	0.1036	–
298.15 K, 101 kPa, x1 = 0.0002126	0.1093	–
298.15 K, 101 kPa, x1 = 0.0002162	–	0.858
298.15 K, 101 kPa, x1 = 0.0002243	0.1151	–
298.15 K, 101 kPa, x1 = 0.0002466	0.1259	–
298.15 K, 101 kPa, x1 = 0.0002495	0.1271	–
298.15 K, 101 kPa, x1 = 0.0002564	0.1305	–
298.15 K, 101 kPa, x1 = 0.0002702	–	0.859
298.15 K, 101 kPa, x1 = 0.0002992	0.1437	–
298.15 K, 101 kPa, x1 = 0.000323	0.1474	–
298.15 K, 101 kPa, x1 = 0.0003242	–	0.861
298.15 K, 101 kPa, x1 = 0.0003333	0.1488	–
298.15 K, 101 kPa, x1 = 0.0003783	–	0.862
298.15 K, 101 kPa, x1 = 0.0004323	–	0.864
298.15 K, 101 kPa, x1 = 0.0004863	–	0.861
298.15 K, 101 kPa, x1 = 0.0005403	–	0.867
303.15 K, 100 kPa, x1 = 5.406e-05	–	0.772
303.15 K, 100 kPa, x1 = 0.0001081	–	0.773
303.15 K, 100 kPa, x1 = 0.0001622	–	0.774
303.15 K, 100 kPa, x1 = 0.0002162	–	0.775
303.15 K, 100 kPa, x1 = 0.0002702	–	0.777
303.15 K, 100 kPa, x1 = 0.0003242	–	0.78
303.15 K, 100 kPa, x1 = 0.0003783	–	0.784
303.15 K, 100 kPa, x1 = 0.0004323	–	0.786
303.15 K, 100 kPa, x1 = 0.0004863	–	0.799
303.15 K, 100 kPa, x1 = 0.0005403	–	0.803
303.15 K, 101 kPa, x1 = 5.406e-05	–	0.772
303.15 K, 101 kPa, x1 = 0.0001081	–	0.772
303.15 K, 101 kPa, x1 = 0.0001622	–	0.774
303.15 K, 101 kPa, x1 = 0.0002162	–	0.775
303.15 K, 101 kPa, x1 = 0.0002702	–	0.778
303.15 K, 101 kPa, x1 = 0.0003242	–	0.78
303.15 K, 101 kPa, x1 = 0.0003783	–	0.785
303.15 K, 101 kPa, x1 = 0.0004323	–	0.786
303.15 K, 101 kPa, x1 = 0.0004863	–	0.799
303.15 K, 101 kPa, x1 = 0.0005403	–	0.802
308 K, 101 kPa, x1 = 0.0001513	0.078	–
308 K, 101 kPa, x1 = 0.0001694	0.085	–
308 K, 101 kPa, x1 = 0.0001892	0.094	–
308 K, 101 kPa, x1 = 0.0002486	0.121	–
308 K, 101 kPa, x1 = 0.0002774	0.135	–
308 K, 101 kPa, x1 = 0.0003945	0.155	–
308.15 K, 100 kPa, x1 = 5.406e-05	–	0.696
308.15 K, 100 kPa, x1 = 0.0001081	–	0.697
308.15 K, 100 kPa, x1 = 0.0001622	–	0.698
308.15 K, 100 kPa, x1 = 0.0002162	–	0.699
308.15 K, 100 kPa, x1 = 0.0002702	–	0.701
308.15 K, 100 kPa, x1 = 0.0003242	–	0.705
308.15 K, 100 kPa, x1 = 0.0003783	–	0.708
308.15 K, 100 kPa, x1 = 0.0004323	–	0.711
308.15 K, 100 kPa, x1 = 0.0004863	–	0.715
308.15 K, 100 kPa, x1 = 0.0005403	–	0.716
308.15 K, 101 kPa, x1 = 5.406e-05	–	0.696
308.15 K, 101 kPa, x1 = 0.0001081	–	0.697
308.15 K, 101 kPa, x1 = 0.0001622	–	0.698
308.15 K, 101 kPa, x1 = 0.0002162	–	0.699
308.15 K, 101 kPa, x1 = 0.0002702	–	0.701
308.15 K, 101 kPa, x1 = 0.0003242	–	0.705
308.15 K, 101 kPa, x1 = 0.0003783	–	0.709
308.15 K, 101 kPa, x1 = 0.0004323	–	0.711
308.15 K, 101 kPa, x1 = 0.0004863	–	0.714
308.15 K, 101 kPa, x1 = 0.0005403	–	0.716
313.15 K, 100 kPa, x1 = 5.406e-05	–	0.611
313.15 K, 100 kPa, x1 = 0.0001081	–	0.612
313.15 K, 100 kPa, x1 = 0.0001622	–	0.614
313.15 K, 100 kPa, x1 = 0.0002162	–	0.617
313.15 K, 100 kPa, x1 = 0.0002702	–	0.617
313.15 K, 100 kPa, x1 = 0.0003242	–	0.62
313.15 K, 100 kPa, x1 = 0.0003783	–	0.624
313.15 K, 100 kPa, x1 = 0.0004323	–	0.626
313.15 K, 100 kPa, x1 = 0.0004863	–	0.628
313.15 K, 100 kPa, x1 = 0.0005403	–	0.63
318 K, 101 kPa, x1 = 0.0001513	0.08	–
318 K, 101 kPa, x1 = 0.0001748	0.09	–
318 K, 101 kPa, x1 = 0.0001964	0.101	–
318 K, 101 kPa, x1 = 0.0002252	0.113	–
318 K, 101 kPa, x1 = 0.0002486	0.125	–
318 K, 101 kPa, x1 = 0.000317	0.152	–
318 K, 101 kPa, x1 = 0.0003369	0.157	–
318 K, 101 kPa, x1 = 0.0003945	0.165	–
318 K, 101 kPa, x1 = 0.0004305	0.169	–
318.15 K, 100 kPa, x1 = 5.406e-05	–	0.582
318.15 K, 100 kPa, x1 = 0.0001081	–	0.584
318.15 K, 100 kPa, x1 = 0.0001622	–	0.585
318.15 K, 100 kPa, x1 = 0.0002162	–	0.587
318.15 K, 100 kPa, x1 = 0.0002702	–	0.588
318.15 K, 100 kPa, x1 = 0.0003242	–	0.589
318.15 K, 100 kPa, x1 = 0.0003783	–	0.59
318.15 K, 100 kPa, x1 = 0.0004323	–	0.591
318.15 K, 100 kPa, x1 = 0.0004863	–	0.592
318.15 K, 100 kPa, x1 = 0.0005403	–	0.593
